Measurements published in ChEMBL document CHEMBL5104095, “Proteolysis targeting chimera (PROTAC) in drug discovery paradigm: Recent progress and future challenges” (Eur J Med Chem, 2021).

Tests used:
[1] = target: T1, Protein cereblon/Bcl-2-like protein 1 (Homo sapiens, UniProt Q07817+Q96SW2); experiment: PROTAC activity at CRBN/BCL-XL in human WI-38 cells assessed as induction of BCL-XL degradation incubated for 16 hrs by Western blot analysis; type: cell-based
Target sequence in this assay (Q07817 whole entry): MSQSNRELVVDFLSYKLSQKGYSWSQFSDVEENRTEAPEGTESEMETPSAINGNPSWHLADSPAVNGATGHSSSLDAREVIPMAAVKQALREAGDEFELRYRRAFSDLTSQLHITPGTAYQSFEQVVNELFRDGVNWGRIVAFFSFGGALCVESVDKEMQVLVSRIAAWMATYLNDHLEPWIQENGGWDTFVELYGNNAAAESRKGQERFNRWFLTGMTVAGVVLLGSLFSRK
Target sequence in this assay (Q96SW2 whole entry): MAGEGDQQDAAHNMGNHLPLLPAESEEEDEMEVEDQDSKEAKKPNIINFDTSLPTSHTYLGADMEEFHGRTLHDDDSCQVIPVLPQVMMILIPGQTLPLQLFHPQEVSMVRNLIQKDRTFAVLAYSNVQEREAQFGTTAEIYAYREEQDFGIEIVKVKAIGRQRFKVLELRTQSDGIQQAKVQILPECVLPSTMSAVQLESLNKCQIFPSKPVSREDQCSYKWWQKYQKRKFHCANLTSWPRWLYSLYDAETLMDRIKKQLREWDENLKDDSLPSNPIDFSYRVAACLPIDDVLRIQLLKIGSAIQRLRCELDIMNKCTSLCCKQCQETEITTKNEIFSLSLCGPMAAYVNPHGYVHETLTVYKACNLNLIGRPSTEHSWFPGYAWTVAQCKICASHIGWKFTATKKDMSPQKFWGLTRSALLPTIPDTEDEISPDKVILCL

[2] = target: T1, Protein cereblon/Bcl-2-like protein 1; experiment: PROTAC activity at CRBN/BCL-XL in human WI-38 cells assessed as induction of BCL-XL degradation incubated for 16 hrs by Western blot analysis relative to control; type: cell-based
Target sequence in this assay (Q07817 whole entry, looked up): as the sequence (Q07817 whole entry) above
Target sequence in this assay (Q96SW2 whole entry, looked up): as the sequence (Q96SW2 whole entry) above

EC50 [1]: 46 nM
Emax [2]: 96.2%
Structure (SMILES): CC1(C)CCC(c2ccccc2)=C(CN2CCN(c3ccc(C(=O)NS(=O)(=O)c4ccc(N[C@H](CCN5CCN(C(=O)CCCn6cc(COCCOCCNc7cccc8c7C(=O)N(C7CCC(=O)NC7=O)C8=O)nn6)CC5)CSc5ccccc5)c(S(=O)(=O)C(F)(F)F)c4)cc3)CC2)C1 (some centres not stated)
